Results published in patent US5837687A, “Azapeptide derivative” (Fujirebio Inc., priority 1994, dated 1998).

Target: T1, NKA receptor (Mesocricetus auratus, UniProt P51144)
T1 construct: from tissue; host or cells: hamster respiratory tract (trachea) ring specimens
T1 sequence (P51144 1-384): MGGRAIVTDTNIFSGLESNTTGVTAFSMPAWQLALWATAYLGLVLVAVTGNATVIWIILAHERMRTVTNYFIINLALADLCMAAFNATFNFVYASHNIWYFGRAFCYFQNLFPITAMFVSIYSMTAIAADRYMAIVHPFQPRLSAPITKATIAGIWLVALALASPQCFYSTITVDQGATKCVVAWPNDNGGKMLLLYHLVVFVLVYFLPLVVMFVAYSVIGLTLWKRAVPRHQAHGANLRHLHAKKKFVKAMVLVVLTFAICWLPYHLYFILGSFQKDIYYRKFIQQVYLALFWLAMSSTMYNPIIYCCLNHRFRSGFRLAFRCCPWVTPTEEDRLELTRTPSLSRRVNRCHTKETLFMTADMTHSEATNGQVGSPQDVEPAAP
Test: Activity to constriction of hamster respiratory tracts caused by NKA (isolated tissue, tension)
Assay type: cell-based
Procedure: The activity of the azapeptide derivative of the present invention to a NKA receptor was evaluated by the following method.
(1) Activity to constriction of hamster respiratory tracts caused by NKA
Respiratory tracts were taken out from male Syrian strain Golden hamsters having a body weight of 100 to 180 g, and cyclic specimens having a width of 3 to 6 mm were prepared. The specimens were incubated at 37° C. and suspended by loading a static tension of 0.5 g, in a reaction tank charged with 15 ml of a Tyrode solution (137 mM of NaCl, 2.7 mM of KCl, 1.8 mM of CaCl2, 1.02 mM of MgCl2, 11.9 mM of NaHCO3, 0.42 mM of NaH2 PO4 and 5.5 mM of glucose) in which 95% O2 -5% CO2 had been passed.
The compound to be tested was charged into the reaction tank and maintained for 5 minutes. 1×10^-7 M of NKA was charged into the reaction tank, and tension caused thereby was recorded. The examined effect of the tested compound as an antagonist was shown by IC50.

Question: For `CC(C)(C)OC(=O)N[C@@H](CC(=O)OCc1ccccc1)C(=O)N[C@@H](CCC(N)=O)C(=O)N[C@@H](Cc1c[nH]c2ccccc12)C(=O)NN(Cc1ccccc1)C(N)=O` [Example 1 (3), Boc-Asp(OBzl)-Gln-Trp-AzPhe-NH2], which IC50 is on record?
Answer: 45 nM

Question: For `CC(C)(C)OC(=O)N[C@@H](Cc1c[nH]c2ccccc12)C(=O)NN(Cc1ccccc1)C(=O)NCCOCc1ccccc1` [Example 2 (1), Boc-Trp-AzPhe-NH(CH2)2 OCH2 Ph], which IC50 is on record?
Answer: 310 nM

Question: With `CC(C)(C)OC(=O)N[C@@H](CCC(N)=O)C(=O)N[C@@H](Cc1c[nH]c2ccccc12)C(=O)NN(Cc1ccccc1)C(=O)NCCOCc1ccccc1` [Example 2 (2), Boc-Gln-Trp-AzPhe-NH(CH2)2 OCH2 Ph] as the molecule, how does the IC50 read?
Answer: 0.66 nM

Question: For `CC(C)(C)OC(=O)N[C@@H](CC(=O)OCc1ccccc1)C(=O)N[C@@H](CCC(N)=O)C(=O)N[C@@H](Cc1c[nH]c2ccccc12)C(=O)NN(Cc1ccccc1)C(=O)NCCOCc1ccccc1` [Example 2 (3), Boc-Asp(OBzl)-Gln-Trp-AzPhe-NH(CH2)2 OCH2 Ph], which IC50 is on record?
Answer: 1.9 nM

Question: For `CC(C)CCC(=O)N[C@@H](CCC(N)=O)C(=O)N[C@@H](Cc1c[nH]c2ccccc12)C(=O)NN(Cc1ccccc1)C(=O)NCCOCc1ccccc1` [Example 3, i-Pent-CO-Gln-Trp-AzPhe-NH(CH2)2 OCH2 Ph], which IC50 is on record?
Answer: 0.6 nM

Question: Which IC50 does the source give for `NC(=O)CC[C@H](NC(=O)c1ccccc1)C(=O)N[C@@H](Cc1c[nH]c2ccccc12)C(=O)NN(Cc1ccccc1)C(=O)NCCOCc1ccccc1` [Example 4, Bz-Gln-Trp-AzPhe-NH(CH2)2 OCH2 Ph] here?
Answer: 2.3 nM

Question: For `NC(=O)CC[C@H](NC(=O)C1CCCC1)C(=O)N[C@@H](Cc1c[nH]c2ccccc12)C(=O)NN(Cc1ccccc1)C(=O)NCCOCc1ccccc1` [Example 5, cyPent-CO-Gln-Trp-AzPhe-NH(CH2)2 OCH2 Ph], which IC50 is on record?
Answer: 2.2 nM

Question: For `CC(C)(C)NC(=O)N[C@@H](CCC(N)=O)C(=O)N[C@@H](Cc1c[nH]c2ccccc12)C(=O)NN(Cc1ccccc1)C(=O)NCCOCc1ccccc1` [Example 6, t-Bu-NHCO-Gln-Trp-AzPhe-NH(CH2)2 OCH2 Ph], which IC50 is on record?
Answer: 0.6 nM

Question: For `CC(C)CCNC(=O)N[C@@H](CCC(N)=O)C(=O)N[C@@H](Cc1c[nH]c2ccccc12)C(=O)NN(Cc1ccccc1)C(=O)NCCOCc1ccccc1` [Example 7, i-Pent-NHCO-Gln-Trp-AzPhe-NH(CH2)2OCH2 Ph], which IC50 is on record?
Answer: 0.5 nM

Question: With `NC(=O)CC[C@H](NC(=O)NC1CCCC1)C(=O)N[C@@H](Cc1c[nH]c2ccccc12)C(=O)NN(Cc1ccccc1)C(=O)NCCOCc1ccccc1` [Example 8, cyPent-NHCO-Gln-Trp-AzPhe-NH (CH2)2 OCH2 Ph] as the molecule, how does the IC50 read?
Answer: 0.7 nM

Question: Which IC50 does the source give for `CC(C)(C)OC(=O)N[C@@H](CCS(C)(=O)=O)C(=O)N[C@@H](Cc1c[nH]c2ccccc12)C(=O)NN(Cc1ccccc1)C(=O)NCCOCc1ccccc1` [Example 9, Boc-Met(O2)-Trp-AzPhe-NH (CH2)2 OCH2 Ph] here?
Answer: 1.4 nM

Question: `CC(C)(C)OC(=O)N[C@@H](CC(N)=O)C(=O)N[C@@H](Cc1c[nH]c2ccccc12)C(=O)NN(Cc1ccccc1)C(=O)NCCOCc1ccccc1` [Example 10, Boc-Asn-Trp-AzPhe-NH(CH2)2 OCH2 Ph] was tested. Which IC50 did it give?
Answer: 6.8 nM

Question: With `CSCC[C@H](NC(=O)OC(C)(C)C)C(=O)N[C@@H](Cc1c[nH]c2ccccc12)C(=O)NN(Cc1ccccc1)C(=O)NCCOCc1ccccc1` [Example 11, Boc-Met-Trp-AzPhe-NH(CH2)2 OCH2 Ph] as the molecule, how does the IC50 read?
Answer: 8.9 nM

Question: For `CC(C)(C)OC(=O)N[C@@H](CCCNC(=O)OCc1ccccc1)C(=O)N[C@@H](Cc1c[nH]c2ccccc12)C(=O)NN(Cc1ccccc1)C(=O)NCCOCc1ccccc1` [Example 13 (1), Boc-Orn(Z)-Trp-AzPhe-NH (CH2)2 OCH2 Ph], which IC50 is on record?
Answer: 80 nM

Question: With `CC(C)(C)OC(=O)N[C@@H](CCCN)C(=O)N[C@@H](Cc1c[nH]c2ccccc12)C(=O)NN(Cc1ccccc1)C(=O)NCCOCc1ccccc1` [Example 13 (2), Boc-Orn-Trp-AzPhe-NH(CH2)2 OCH2 Ph] as the molecule, how does the IC50 read?
Answer: 78 nM

Question: Which IC50 does the source give for `CC(C)(C)OC(=O)N[C@@H](CCCNC(N)=O)C(=O)N[C@@H](Cc1c[nH]c2ccccc12)C(=O)NN(Cc1ccccc1)C(=O)NCCOCc1ccccc1` [Example 14, Boc-Cit-Trp-AzPhe-NH(CH2)2 OCH2 Ph] here?
Answer: 24 nM

Question: How did the IC50 turn out when `CC(C)(C)OC(=O)N[C@@H](CCCNC(=N)N[N+](=O)[O-])C(=O)N[C@@H](Cc1c[nH]c2ccccc12)C(=O)NN(Cc1ccccc1)C(=O)NCCOCc1ccccc1` [Example 15, Boc-Arg(NO2)-Trp-AzPhe-NH(CH2)2 OCH2 Ph] was run?
Answer: 35 nM

Question: For `CC(C)(C)OC(=O)N[C@@H](CC(=O)OCc1ccccc1)C(=O)N[C@@H](Cc1c[nH]c2ccccc12)C(=O)NN(Cc1ccccc1)C(=O)NCCOCc1ccccc1` [Example 16 (1), Boc-Asp(OBzl)-Trp-AzPhe-NH(CH2)2 OCH2 Ph], which IC50 is on record?
Answer: 13 nM

Question: `CC(C)(C)OC(=O)N[C@@H](CC(=O)O)C(=O)N[C@@H](Cc1c[nH]c2ccccc12)C(=O)NN(Cc1ccccc1)C(=O)NCCOCc1ccccc1` [Example 16 (2), Boc-Asp-Trp-AzPhe-NH(CH2)2 OCH2 Ph] was tested. Which IC50 did it give?
Answer: 13 nM

Question: `CC(C)(C)OC(=O)N[C@@H](CCC(N)=O)C(=O)N[C@@H](Cc1c[nH]c2ccccc12)C(=O)NN(Cc1ccccc1)C(=O)NCc1ccc(F)cc1` [Example 17 (2), Boc-Gln-Trp-AzPhe-NHCH2 Ph(4-F)] was tested. Which IC50 did it give?
Answer: 29 nM

Question: `CC(C)(C)OC(=O)N[C@@H](CC(=O)OCc1ccccc1)C(=O)N[C@@H](CCC(N)=O)C(=O)N[C@@H](Cc1c[nH]c2ccccc12)C(=O)NN(Cc1ccccc1)C(=O)NCc1ccc(F)cc1` [Example 17 (3), Boc-Asp(OBzl)-Gln-Trp-AzPhe-NHCH2 Ph(4-F)] was tested. Which IC50 did it give?
Answer: 4.2 nM

Question: For `CC(C)(C)OC(=O)N[C@@H](CCC(N)=O)C(=O)N[C@@H](Cc1c[nH]c2ccccc12)C(=O)NN(Cc1ccccc1)C(=O)NCCOCc1ccc(F)cc1` [Example 18 (2), Boc-Gln-Trp-AzPhe-NH(CH2)2 OCH2 Ph(4-F)], which IC50 is on record?
Answer: 5.6 nM

Question: `CC(C)(C)OC(=O)N[C@@H](CC(=O)OCc1ccccc1)C(=O)N[C@@H](CCC(N)=O)C(=O)N[C@@H](Cc1c[nH]c2ccccc12)C(=O)NN(Cc1ccccc1)C(=O)NCCc1ccccc1` [Example 19 (3), Boc-Asp(OBzl)-Gln-Trp-AzPhe-NH(CH2)2 Ph] was tested. Which IC50 did it give?
Answer: 5.3 nM

Question: How did the IC50 turn out when `CC(C)(C)OC(=O)N[C@@H](CC(=O)OCc1ccccc1)C(=O)N[C@@H](CCC(N)=O)C(=O)N[C@@H](Cc1c[nH]c2ccccc12)C(=O)NN(Cc1ccccc1)C(=O)NCc1ccccc1` [Example 20 (3), Boc-Asp(OBzl)-Gln-Trp-AzPhe-NHCH2 Ph] was run?
Answer: 1.7 nM

Question: `CC(C)CCC(=O)N[C@@H](CC(=O)OCc1ccccc1)C(=O)N[C@@H](CCC(N)=O)C(=O)N[C@@H](Cc1c[nH]c2ccccc12)C(=O)NN(Cc1ccccc1)C(=O)NCc1ccccc1` [Example 21, i-Pent-CO-Asp(OBzl)-Gln-Trp-AzPhe-NHCH2 Ph] was tested. Which IC50 did it give?
Answer: 1.7 nM

Question: Which IC50 does the source give for `COc1ccc(CNC(=O)N(Cc2ccccc2)NC(=O)[C@H](Cc2c[nH]c3ccccc23)NC(=O)[C@H](CCC(N)=O)NC(=O)[C@H](CC(=O)OCc2ccccc2)NC(=O)OC(C)(C)C)c(OC)c1` [Example 22, Boc-Asp(OBzl)-Gln-Trp-AzPhe-NHDmob] here?
Answer: 4900 nM

Question: Which IC50 does the source give for `CNC(=O)N(Cc1ccccc1)NC(=O)[C@H](Cc1c[nH]c2ccccc12)NC(=O)[C@H](CCC(N)=O)NC(=O)[C@H](CC(=O)OCc1ccccc1)NC(=O)OC(C)(C)C` [Example 23 (3), Boc-Asp(OBzl)-Gln-Trp-AzPhe-NHCH3] here?
Answer: 78 nM

Question: With `CC(C)(C)OC(=O)N[C@@H](CC(=O)OCc1ccccc1)C(=O)N[C@@H](CCC(N)=O)C(=O)N[C@@H](Cc1c[nH]c2ccccc12)C(=O)NN(Cc1ccccc1)C(=O)NCCO` [Example 24 (2), Boc-Asp(OBzl)-Gln-Trp-AzPhe-NH(CH2)2 OH] as the molecule, how does the IC50 read?
Answer: 46 nM
